Source: patent publication US20250177473A1, “PEPTIDE REGULATORS OF METABOLISM” (Metabico, Inc., priority 2022, published 2025)

Columns and labels:
[1] = tested on: IL-6; assay: IL-6 mRNA expression in LPS-induced primary mouse fibroblasts; assay type: cell-based; details: LPS 0.5 μg/mL 24 h; DLSKEPSISRE 0.05 mg/mL or metformin 1 mM
Experimental: The study was carried out in primary mouse fibroblasts. Isolation of fibroblasts was carried out with techniques described earlier (See Example 1). Fibroblasts were cultured for 3 days. The following stressors were applied separately: bacterial lipopolysaccharides (LPS), high glucose in the incubation medium, and serum-free incubation medium.
LPS is a major outer surface membrane component that induces an inflammatory response in cells.
Isolation of mRNA, synthesis of the first strand of cDNA, and RT-PCR were performed with techniques described earlier (See Example 1). Expression levels of IRS2, TNF-α, IL-6, and GSK3p (WNT-pathway) were analyzed.
The study was carried out in primary mouse fibroblasts. Isolation of fibroblasts was carried out with techniques described earlier (See Example 1). Incubation of fibroblasts with 100 μM individual peptides and 0.5 μg/mL LPS was carried out for 24 hours. Each treatment group was represented in two biological replicates.
Isolation of mRNA, synthesis of the first strand of cDNA, and RT-PCR were performed with techniques described earlier (See Example 1). Expression levels of RPL27, TNF-α, IL-6, and IRS2 genes were analyzed.

[2] = tested on: C57BL/6 mice on a high-fat diet; assay: Chronic 28-day administration in HFD mice: bodyweight, water and feed consumption; assay type: in vivo, mouse; details: for Weekly food consumption / Weekly water consumption: Metformin 250 mg/kg p.o. daily
Experimental: A standard laboratory rodent pellet SNIFF RI/M-H V1534-30 (58% carbohydrates, 9% fat, 33% protein, 306 kcal/100 g) was given ad libitum to the control animals. For HFD groups, the high-fat feed was used. For 1 kg of feed, 610 g of ground SNIFF feed and 360 g of melted pork lard were taken, water (˜250 ml, 60-70° C.), 10 g of sodium chloride, 30 g of sodium glutamate were added. The mixture was brewed to a dough consistency, and food granules were formed. Then the granules were dried at 60-70° C. for 10-12 hours. The finished food for consumption was transferred to the animal-keeping area. The prepared food was stored at 4° C. for no more than 7 days. The approximate energy value of the HFD feed was 516 kcal/100 g (45% fat, 35% carbohydrates, 20% protein).
The metabolic syndrome was modeled by keeping animals on a HFD for 16 weeks. The control group was kept on a standard diet (STD) during this period. Animals had free access to feed and water located in the cage lid.
(§1) Groups of 10 animals were formed from the existing groups from Stage 2, with similar mean body weight (Table 6). The animals' bodyweight was monitored three times a week, water, and feed consumption—weekly. After the last treatment, the animals were euthanized for necropsy and their blood collected. The internal organs were examined for the presence of macro damage and weighed. The adipose tissue surrounding the epididymis was evaluated as a marker of obesity in animals. For histological examination, samples of adipose tissue and liver tissue were fixed in 10% formalin solution for further histological analysis.
The administration volume was 10 ml/kg for drugs administered i.p., 6 μl/animal for i.n. administration and 5 ml/kg for drugs administered p.o.
The animals were weighed weekly on weeks 1-16 of the experiment (1-120 days of the study), during the administration of the tested substances (121-148 days)—three times a week. The bodyweight of a hungry animal immediately before necropsy was taken to calculate the percentage of organ weight to body weight.
Each animal's food and water consumption was evaluated weekly by weighing the grid with food or a bottle of water before and after 24 hours.

[3] = tested on: C57BL/6 mice on a high-fat diet; assay: Tolerability observations in HFD mice study; assay type: in vivo, mouse; details: metformin 250 mg/kg p.o.
Experimental: as §1
During necropsy, the body's external state, internal surfaces, the cranial cavity, chest, abdominal and pelvic cavities with organs and tissues located in them, the neck with organs and tissues, the skeleton, and the musculoskeletal system were examined. The organs and tissues were fixed in 10% formalin. Liver and adipose tissue samples were weighed and stored in 10% formalin for subsequent histological analysis.

**Q.** How did the “LPS-induced expression of IL-6” value [1] turn out when `CN(C)C(=N)N=C(N)N` [Metformin] was run?
**A.** similarly

**Q.** And the “Bodyweight during the period the test substance administration” value ([2]; Metformin 250 mg/kg p.o. daily from day 122, day 122)?
**A.** 34.3 ± 0.7 grams

**Q.** What about the “Bodyweight during the period the test substance administration” value ([2]; Metformin 250 mg/kg p.o. daily from day 122, day 124) of the same molecule?
**A.** 33.9 ± 0.7 grams

**Q.** What about the “Bodyweight during the period the test substance administration” value ([2]; Metformin 250 mg/kg p.o. daily from day 122, day 126) of the same molecule?
**A.** 33.4 ± 0.8 grams

**Q.** What about the “Bodyweight during the period the test substance administration” value ([2]; Metformin 250 mg/kg p.o. daily from day 122, day 129) of the same molecule?
**A.** 32.9 ± 0.7 grams

**Q.** And the “Bodyweight during the period the test substance administration” value ([2]; Metformin 250 mg/kg p.o. daily from day 122, day 131)?
**A.** 33.1 ± 0.7 grams

**Q.** What about the “Bodyweight during the period the test substance administration” value ([2]; Metformin 250 mg/kg p.o. daily from day 122, day 133) of the same molecule?
**A.** 33.1 ± 0.8 grams

**Q.** What about the “Bodyweight during the period the test substance administration” value ([2]; Metformin 250 mg/kg p.o. daily from day 122, day 136) of the same molecule?
**A.** 32.4 ± 1.1 grams

**Q.** And the “Bodyweight during the period the test substance administration” value ([2]; Metformin 250 mg/kg p.o. daily from day 122, day 138)?
**A.** 32.2 ± 1.1 grams

**Q.** And the “Bodyweight during the period the test substance administration” value ([2]; Metformin 250 mg/kg p.o. daily from day 122, day 141)?
**A.** 32.9 ± 0.9 grams

**Q.** What about the “Bodyweight during the period the test substance administration” value ([2]; Metformin 250 mg/kg p.o. daily from day 122, day 144) of the same molecule?
**A.** 33.2 ± 1.0 grams

**Q.** What about the “Bodyweight during the period the test substance administration” value ([2]; Metformin 250 mg/kg p.o. daily from day 122, day 147) of the same molecule?
**A.** 33.5 ± 1.0 grams

**Q.** And the Weekly food consumption ([2]; Week 1)?
**A.** 458.4 ± 55.4 kcal/kg/day

**Q.** What about the Weekly water consumption ([2]; Week 1) of the same molecule?
**A.** 0.1095 ± 0.0109 mL/min/kg

**Q.** And the Weekly food consumption ([2]; Week 2)?
**A.** 758.4 ± 51.4 kcal/kg/day

**Q.** What about the Weekly water consumption ([2]; Week 2) of the same molecule?
**A.** 0.1199 ± 0.00944 mL/min/kg

**Q.** And the Weekly food consumption ([2]; Week 3)?
**A.** 567.6 ± 21.3 kcal/kg/day

**Q.** What about the Weekly water consumption ([2]; Week 3) of the same molecule?
**A.** 0.1505 ± 0.0169 mL/min/kg

**Q.** And the Weekly food consumption ([2]; Week 4)?
**A.** 709.4 ± 22.7 kcal/kg/day

**Q.** And the Weekly water consumption ([2]; Week 4)?
**A.** 0.182 ± 0.0183 mL/min/kg

**Q.** What about the “decrease in weight compared to values before substance administration” value ([2]; Metformin p.o., chronic 4-week) of the same molecule?
**A.** 7.6%

**Q.** And the “Animal body weight before the administration of the tested substances” value ([2]; day 112, baseline, group 5 Metformin p.o.)?
**A.** 36.94 ± 0.954 grams

**Q.** And the “loss of excess body weight (normalized to HFD control)” value ([2]; metformin chronic administration, compared with EPSI i.n.)?
**A.** comparable

**Q.** What about the “death of animals after administration” value [3] of the same molecule?
**A.** 2 animals

**Q.** And the “deviations in the state of health observed after the first injection” value [3]?
**A.** hunching, tremor, weight loss
